Measured values published in US8414989B2, “Cyclodextrin compositions, articles, and methods” (Cellresin Technologies, LLC, priority 2011, dated 2013).

Tests used:
Type in all cases: physicochemical
[1] = Example 1: 1-MCP headspace release from UV-cured isobornyl acrylate coating with 1-MCP/c/α-CD on PET film (GC-FID); conditions: 1 cm x 1 cm cured coated square, 250 mL bottle
Protocol: A cyclodextrin inclusion complex is formed from α-cyclodextrin and 1-methyl cyclopropene (1-MCP) using the technique described by Neoh, T. L. et al., J. Agric. Food Chem. 2007, 55, 11020-11026 “Kinetics of Molecular Encapsulation of 1-Methylcyclopropene into α-Cyclodextrin.” The inclusion complex is termed “1-MCP/c/α-CD.” A 500 mL bottle is charged with 97.0 g of isobornyl acrylate, 1.0 g of hexanediol diacrylate, 1.0 g of 1-MCP/c/α-CD, and 1.0 g of […] (IRGACURE® 184, obtained from Ciba Specialty Chemicals Corp. of Tarrytown, N.Y.). The bottle is firmly capped and the components are mixed by shaking the bottle briefly by hand.
About 2 mL of the mixture is removed with a metered dropper and dispensed on an 8.5 inch by 11 inch PET film and drawn down using a metering rod (Mayer rod) having a delivered coating thickness of 25 microns. Then the coated PET film is placed on a flat surface approximately 5 cm beneath a medium pressure mercury arc lamp operating at 200 watts per inch (79 watts per cm). After 30 seconds under the lamp, the film is removed. A silicone coated PET sheet (about 50 microns thick) is placed over the cured coating and allowed to sit on a laboratory bench overnight.
A die cutter is used to cut a 1 cm by 1 cm square of the coated portion of the sheet. […] Headspace concentrations of 1-MCP are measured after 1 hour following introduction of the coated square into bottle. The 1-MCP headspace concentration is quantified using gas chromatography by removing 1 mL of gas from the sample bottle using a gas sampling valve interfaced directly to a GC column having FID detector.
Then 50 μl of deionized water is injected into the jar. […] The sealed jar is allowed to sit on the lab bench for one hour after the injection of water, then a second headspace sample is analyzed. A final headspace sample is analyzed 24 hours after the injection of water. At 1 hour after injection of the water, 0.5 ppm of 1-MCP is measured in the headspace. After 24 hours, 0.5 ppm of 1-MCP is measured in the headspace.

[2] = Example 3: 1-MCP headspace release versus wt-% 1-MCP/c/α-CD in UV-cured coating; conditions: 2.5 cm x 10 cm, 250 mL bottle, 20 μL water, 24 hours
Protocol: A 20 mL bottle was charged with 9.6 g of UV Coating VP 10169/60 MF-2NE (obtained from Verga GmbH of Aschau am Inn, Germany). Then 0.4 g of 1-MCP/α-cyclodextrin complex (4.7% 1-MCP obtained from AgroFresh of Spring House, Pa.) termed “1-MCP/c/α-CD” was added to the bottle. The bottle was then firmly capped and shaken by hand by hand until the blends appear uniformly dispersed, resulting in a 4.0 wt-% 1-MCP/c/α-CD blend. Three additional blends containing 2.0 wt-%, 1.0 wt-% and 0.5 wt-% of 1-MCP/c/α-CD were prepared in the same manner.
A rubber ink roller was used to deliver a thin (nominally 0.3 μm) coating to a 20 cm by 20 cm polyethylene extrusion coated paper sheet using the technique of Example 2.
Using razor blade, 2.5 cm×10 cm rectangles were cut from the coated portion of each of the sheets. Then the coated rectangular sheets were cured using the procedure of Example 2. Each cured, coated rectangle was placed in a 250 mL serum bottle. The bottle was then sealed with TEFLON® faced silicone septa. Then 20 μL of deionized water was injected into each bottle. […] Headspace was analyzed for 1-MCP 24 hours after the injection of water, using the technique employed in Example 2, and employing the 6-point 1-butene calibration curve as described in Example 2. Table 2 and FIG. 2 give the 24-hour average 1-MCP headspace concentration and standard deviation for each of the coated and cured rectangular sheets.

[3] = Example 8: 1-MCP headspace release from cured coating with varying amounts of liquid water; conditions: 4.0 wt-% 1-MCP/c/α-CD coating, 5 cm x 10 cm, 250 mL bottle
Text: A 4.0 wt-% 1-MCP/c/α-CD coating blend was made according to the technique of Example 3. A 20 cm by 20 cm polyethylene extrusion coated paper sheet was coated with the mixture using the technique of Example 2. A paper cutter was used to cut nine, 5 cm by 10 cm rectangles from the sheet. The cut, coated rectangles were passed by hand about 10 cm beneath a medium pressure mercury arc lamp operating at 79 watts per cm. After 1.5 seconds exposure to the lamp, the sample was removed. The cured sample was allowed to sit on a laboratory bench overnight coating side down.
Each cured sample was placed in a 250 mL serum bottle. Each bottle was sealed with a TEFLON® faced silicone septum. The amount of liquid water that would, in vapor form, correspond to 100% relative humidity (RH) at 20° C. (provided at http://hyperphysics.phy-astr.gsu.edu/hbase/kinetic/vappre.html#c) is 17.3 g/m^3, or 17.3 g per 1000 L. The density of water at 20° C. is 0.9982 g/mL. Thus, at 20° C., 4.3 μL, of liquid water added to an enclosed volume of 250 mL and containing no other water will vaporize to give 100% RH. Our laboratory facility temperature was 20° C.±5° C.
Three of the bottles were injected with 10 μL, of deionized water, three with 20 μL of deionized water, and three with 50 μL of deionized water. […] The headspace of each bottle was analyzed for 1-MCP at 2 hours, 4 hours, 8 hours, 24 hours, and 48 hours after the injection of water, wherein the headspace analysis was conducted using the analytical technique employed in Example 3.

With CC1=CC1 [1-MCP, 1-methylcyclopropene] the “Headspace concentration of 1-MCP” value ([1]; 1 hour after injection of 50 μl water) was 0.5 ppm, the “Headspace concentration of 1-MCP” value ([1]; 24 hours after injection of 50 μl water) was 0.5 ppm and the “Headspace concentration of 1-MCP” value ([1]; no water added, 1 hour) was “No measurable concentration”. The “Headspace concentration of 1-MCP, Ave.” value ([2]; 0.5 wt-% 1-MCP/c/α-CD coating) was 0.09 ppm (v/v), the “Headspace concentration of 1-MCP, Ave.” value ([2]; 1 wt-% 1-MCP/c/α-CD coating) was 0.20 ppm (v/v) and the “Headspace concentration of 1-MCP, Ave.” value ([2]; 2 wt-% 1-MCP/c/α-CD coating) was 0.56 ppm (v/v). The “Headspace concentration of 1-MCP, Ave.” value ([2]; 4 wt-% 1-MCP/c/α-CD coating) was 1.1 ppm (v/v), the “Headspace concentration of 1-MCP, average” value ([3]; 10 μL H2O, 2 hr) was 1.3 ppm (v/v) and the “Headspace concentration of 1-MCP, average” value ([3]; 10 μL H2O, 4 hr) was 2.5 ppm (v/v). The “Headspace concentration of 1-MCP, average” value ([3]; 10 μL H2O, 8 hr) was 3.8 ppm (v/v), the “Headspace concentration of 1-MCP, average” value ([3]; 10 μL H2O, 24 hr) was 7.1 ppm (v/v) and the “Headspace concentration of 1-MCP, average” value ([3]; 10 μL H2O, 48 hr) was 10.0 ppm (v/v). For the same compound, the “Headspace concentration of 1-MCP, average” value ([3]; 20 μL H2O, 2 hr) was 2.6 ppm (v/v), the “Headspace concentration of 1-MCP, average” value ([3]; 20 μL H2O, 4 hr) was 5.8 ppm (v/v) and the “Headspace concentration of 1-MCP, average” value ([3]; 20 μL H2O, 8 hr) was 9.2 ppm (v/v). For the same compound, the “Headspace concentration of 1-MCP, average” value ([3]; 20 μL H2O, 24 hr) was 15.7 ppm (v/v), the “Headspace concentration of 1-MCP, average” value ([3]; 20 μL H2O, 48 hr) was 20.5 ppm (v/v) and the “Headspace concentration of 1-MCP, average” value ([3]; 50 μL H2O, 2 hr) was 8.7 ppm (v/v). The “Headspace concentration of 1-MCP, average” value ([3]; 50 μL H2O, 4 hr) was 18.6 ppm (v/v), the “Headspace concentration of 1-MCP, average” value ([3]; 50 μL H2O, 8 hr) was 30.8 ppm (v/v) and the “Headspace concentration of 1-MCP, average” value ([3]; 50 μL H2O, 24 hr) was 55.3 ppm (v/v). The “Headspace concentration of 1-MCP, average” value ([3]; 50 μL H2O, 48 hr) was 63.0 ppm (v/v).
